Test results published in patent US5880122A, “3-Carboxamide derivatives of 5H-pyrrolo[2,1-c][1,4]-benzodiazepines” (American Home Products Corporation, priority 1997, dated 1999).
pIC50: −log10 of the molar value. Structures can show the parent of a compound that is named as a salt.

Each molecule was assayed on Endogenous Arginine Vasopressin Antidiuretic (V2) Response (assay: Antagonism of endogenous arginine vasopressin antidiuretic (V2) response in conscious rats (urine volume)). Settings: oral 10 mg/kg dose, urine collected for 4 hours, no water during test.
Format: in vivo, Sprague-Dawley rats
Description: On the day of test, rats were placed individually into metabolic cages equipped with stainless steel screens (to separate the feces from the urine) and funnels for collection of urine. Vehicle or reference agent was given at various oral doses. During the test, rats were not provided with water or food. Urine was collected for four hours after dosing of the test compound. At the end of four hours, urine volume was measured. […] Determinations of Na^+, K^+ and Cl^- ion were carried out using ion specific electrodes in a Beckman SYNCHRON EL-ISE Electrolyte System analyzer.

Point of comparison: CN1CCN(NC(=O)c2ccc3n2Cc2ccccc2N(C(=O)c2ccc(NC(=O)c4ccccc4-c4ccccc4)cc2Cl)C3)CC1 [Example 13, Bilphenyl-2-carboxylic acid{3-chloro-4-[3-(4-methyl-piperazine-1 aminocarbonyl)-5H,11H-pyrrolo[2,1-c][1,4]benzodiazepine-10-carbonyl]-phenyl}-amide.], “Urine Volume (ml/4 hrs) 10 mg/kg rat p.o.” value 16.8 ml/4 hrs. Against it:
- COc1cc(NC(=O)c2ccccc2-c2ccccc2)ccc1C(=O)N1Cc2ccc(C(=O)NN(C)C)n2Cc2ccccc21 [Example 17] — lower, 9.4 ml/4 hrs
- COc1cc(NC(=O)c2ccccc2-c2ccccc2)ccc1C(=O)N1Cc2ccc(C(=O)N3CCN(C)CC3)n2Cc2ccccc21 [Example 16] — higher, 24.3 ml/4 hrs
- O=C(Nc1ccc(C(=O)N2Cc3ccc(C(=O)N4CCC(N5CCOCC5)CC4)n3Cc3ccccc32)c(Cl)c1)c1ccccc1-c1ccccc1 [Example 15, Biphenyl-2-carboxylic acid{3-chloro-4-[3-(4-morpholino-1piperidine-1-carbonyl)-5H,11H-pyrrolo[2,1-c][1,4]benzodiazepine-10-carbonyl]-phenyl}-amide.] — higher, 19.3 ml/4 hrs
- CN1CCN(C(=O)c2ccc3n2Cc2ccccc2N(C(=O)c2ccc(NC(=O)c4ccccc4-c4ccccc4)cc2Cl)C3)CC1 [Example 9] — higher, 23.7 ml/4 hrs
- O=C(Nc1ccc(C(=O)N2Cc3ccc(C(=O)O)n3Cc3ccccc32)c(Cl)c1)c1ccccc1-c1ccccc1 [Example 7] — higher, 19.2 ml/4 hrs
- CN(C)NC(=O)c1ccc2n1Cc1ccccc1N(C(=O)c1ccc(NC(=O)c3ccccc3-c3ccccc3)cc1Cl)C2 [Example 8] — higher, 40.9 ml/4 hrs
- CN(C)C1CCN(C(=O)c2ccc3n2Cc2ccccc2N(C(=O)c2ccc(NC(=O)c4ccccc4-c4ccccc4)cc2Cl)C3)CC1 [Example 12, Biphenyl-2-carboxylic acid {3-chloro-4-[3-(4-dimethylamino-piperidine-1-carbonyl)-5H,11H-1pyrrolo[2,1-c][1,4]benzodiazeline-10-carbonyl]-phenyl}-amide.] — higher, 21.4 ml/4 hrs
- Cc1ccc(F)cc1C(=O)Nc1ccc(C(=O)N2Cc3ccc(C(=O)N[N+](C)(C)C)n3Cc3ccccc32)c(Cl)c1 [Example 4] — lower, 9.2 ml/4 hrs
- O=C(Nc1ccc(C(=O)N2Cc3ccc(C(=O)N4CCC(N5CCCCC5)CC4)n3Cc3ccccc32)c(Cl)c1)c1ccccc1-c1ccccc1 [Example 11, Biphenyl-2-carboxylic acid{3-chloro-4-[3-(4-piperidinyl-pilperidine-1-carbonyl)-5H,11H-pyrrolo[2,1-c][1,4]benzodiazepine-10-carbonyl]-phenyl}-amide.] — higher, 20.5 ml/4 hrs
- O=C(O)CNC(=O)c1ccc2n1Cc1ccccc1N(C(=O)c1ccc(NC(=O)c3ccccc3-c3ccccc3)cc1Cl)C2 [Example 18] — lower, 7.8 ml/4 hrs
- Cc1ccc(F)cc1C(=O)Nc1ccc(C(=O)N2Cc3ccc(C(=O)[N-][N+](C)(C)C)n3Cc3ccccc32)c(Cl)c1 [Example 5, 2-[[10-[2-Chloro-4-[(5-fluoro-2-methylbenzoyl)amino]benzoyl]-10,11-dihydro-5H-pyrrolo[2,1-c][1,4]benzodiazepin-3-yl]hydroxymethylenel-1.1,1-trimetpyIpydraziniuminner salt] — lower, 9.1 ml/4 hrs

The molecules below were run against T1, Human V2 Vasopressin Receptor (Homo sapiens, UniProt P30518) (assay: Binding to membranes of mouse fibroblast cell line (LV-2) transfected with the cDNA expressing the human V2 vasopressin receptor). Settings: LV-2 cell membranes, [3H] Arginine8 vasopressin 0.8 nM, 120 min.
T1 construct: expressed in transfected cells; host or cells: mouse fibroblast cell line LV-2
Description: Flasks of 175 ml capacity, containing attached cells grown to confluence, are cleared of culture medium by aspiration. The flasks containing the attached cells are rinsed with 2×5 ml of phosphate buffered saline (PBS) and the liquid aspirated off each time. Finally, 5 ml of an enzyme free dissociation Hank's based solution (Specialty Media, Inc., Lafayette, N.J.) is added and the flasks are left undisturbed for 2 min. The content of all flasks is poured into a centrifuge tube and the cells pelleted at 300×g for 15 min. […] The homogenate is centrifuged at 1500×g for 10 min to remove ghost membranes. […] Upon completion, the pellet is resuspended in a small volume of 50.0 mM Tris.HCl buffer, pH 7.4. The protein content is determined by the Lowry method and the receptor membranes are suspended in 50.0 mM Tris.HCl buffer containing 0.1 mM phenylmethylsulfonylfluoride (PMSF) and 0.2% bovine serum albumin (BSA) to give 2.5 mg receptor protein per ml of suspension.
Arginine^8, vasopressin (S.A. 75.0 Ci/mmole) at 0.8 nM and the reaction initiated by the addition of 80.0 ml of tissue membranes (200.0 mg tissue protein). […] Non specific binding is assessed in the presence of 1.0 mM of unlabeled ligand, added in 20 ml volume. […] The data are analyzed for IC50 values by the LUNDON-2 program for competition (LUNDON SOFTWARE, Ohio).

T1 sequence (P30518 whole entry): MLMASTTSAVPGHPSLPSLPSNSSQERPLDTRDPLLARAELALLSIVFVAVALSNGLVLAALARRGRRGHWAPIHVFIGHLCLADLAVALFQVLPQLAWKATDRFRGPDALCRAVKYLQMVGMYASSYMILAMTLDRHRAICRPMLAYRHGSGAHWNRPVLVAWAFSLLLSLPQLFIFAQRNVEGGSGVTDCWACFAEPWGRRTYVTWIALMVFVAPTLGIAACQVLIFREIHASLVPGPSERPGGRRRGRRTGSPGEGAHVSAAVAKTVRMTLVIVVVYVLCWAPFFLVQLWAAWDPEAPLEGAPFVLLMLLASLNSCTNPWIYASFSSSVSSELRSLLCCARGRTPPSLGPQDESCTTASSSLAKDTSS

Point of comparison: Cc1ccc(F)cc1C(=O)Nc1ccc(C(=O)N2Cc3ccc(C(=O)[N-][N+](C)(C)C)n3Cc3ccccc32)c(Cl)c1 [Example 5, 2-[[10-[2-Chloro-4-[(5-fluoro-2-methylbenzoyl)amino]benzoyl]-10,11-dihydro-5H-pyrrolo[2,1-c][1,4]benzodiazepin-3-yl]hydroxymethylenel-1.1,1-trimetpyIpydraziniuminner salt], pIC50 7.22. Against it:
- O=C(Nc1cc(C(=O)N2Cc3ccc(C(=O)C(Cl)(Cl)Cl)n3Cc3ccccc32)ccc1Cl)c1ccccc1-c1ccccc1 [Example 6, N-[5-[3-trichloromethylcarbnyl]-[5H-pyrrolo-[2,1-c]-[1,4]-benzdiazalin-10(11H)-ylcarbonyl]-2-chloronhenyl]-2-henylbenzamide] — 1.03 log units higher, 8.25
